Measured values published in ChEMBL document CHEMBL1201862, “PubChem BioAssay data set” (2004).
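Five compound concentrations were applied to cells in 96-well plates for 48 hours; endpoints were derived by simple linear interpolation of the resulting dose-response curve. At the GI50, growth is halved.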 The source made the active and inactive calls. Rule as the data show it: active = GI50 up to about 1.1 µM and inactive = higher.

Tests used:
Assay in all cases: growth of human tumour cells (NCI), 48 h
RXF 393 = tested on: RXF 393
Malme-3M = tested on: Malme-3M
IGROV-1 = tested on: IGROV-1
UACC-62 = tested on: UACC-62
SW-620 = tested on: SW-620
M19-MEL = tested on: M19-MEL
SNB-78 = tested on: SNB-78
NCI-H226 = tested on: NCI-H226
SK-MEL-2 = tested on: SK-MEL-2
SK-MEL-28 = tested on: SK-MEL-28
UO-31 = tested on: UO-31
COLO 205 = tested on: COLO 205
SK-MEL-5 = tested on: SK-MEL-5
KM12 = tested on: KM12
EKVX = tested on: EKVX
MOLT-4 = tested on: MOLT-4
NCI-H460 = tested on: NCI-H460
LOX IMVI = tested on: LOX IMVI
DLD-1 = tested on: DLD-1
OVCAR-5 = tested on: OVCAR-5
SNB-19 = tested on: SNB-19
HCT-116 = tested on: HCT-116
K562 = tested on: K562
CCRF-CEM = tested on: CCRF-CEM
M14 = tested on: M14
SNB-75 = tested on: SNB-75
NCI-H23 = tested on: NCI-H23
DMS-114 = tested on: DMS-114
SF-539 = tested on: SF-539
OVCAR-4 = tested on: OVCAR-4
DMS-273 = tested on: DMS-273
UACC-257 = tested on: UACC-257
TK-10 = tested on: TK-10
SF-268 = tested on: SF-268
U-251 = tested on: U-251
A498 = tested on: A498
SF-295 = tested on: SF-295
OVCAR-8 = tested on: OVCAR-8
HL-60 = tested on: HL-60
A549 = tested on: A549
HOP-92 = tested on: HOP-92
HOP-18 = tested on: HOP-18
OVCAR-3 = tested on: OVCAR-3
HCC 2998 = tested on: HCC 2998
RXF 631 = tested on: RXF 631
ACHN = tested on: ACHN
KM-20L2 = tested on: KM-20L2
XF498 = tested on: XF498
HOP-62 = tested on: HOP-62
CAKI-1 = tested on: CAKI-1
HT-29 = tested on: HT-29
SN12C = tested on: SN12C
SK-OV-3 = tested on: SK-OV-3
SR = tested on: SR
NCI-H522 = tested on: NCI-H522
786-0 = tested on: 786-0
LXFL 529 = tested on: LXFL 529
HCT-15 = tested on: HCT-15

For `CCc1ccccc1NC(=O)C(=O)CC(=O)c1sc(Nc2ccccc2)nc1C`, the GI50 (RXF 393) was > 100 µM (inactive), the GI50 (Malme-3M) was > 100 µM (inactive) and the GI50 (IGROV-1) was > 100 µM (inactive). For the same molecule, the GI50 (UACC-62) was 99.5 µM (inactive), the GI50 (SW-620) was > 100 µM (inactive) and the GI50 (M19-MEL) was > 100 µM (inactive). The GI50 (SNB-78) was > 100 µM (inactive), the GI50 (NCI-H226) was > 100 µM (inactive) and the GI50 (SK-MEL-2) was > 100 µM (inactive). For the same molecule, the GI50 (SK-MEL-28) was > 100 µM (inactive), the GI50 (UO-31) was > 100 µM (inactive) and the GI50 (COLO 205) was > 100 µM (inactive). For the same molecule, the GI50 (SK-MEL-5) was > 100 µM (inactive), the GI50 (KM12) was > 100 µM (inactive) and the GI50 (EKVX) was 29.4 µM (inactive). For the same molecule, the GI50 (MOLT-4) was 48.6 µM (inactive), the GI50 (NCI-H460) was > 100 µM (inactive) and the GI50 (LOX IMVI) was > 100 µM (inactive). The GI50 (DLD-1) was > 100 µM (inactive), the GI50 (OVCAR-5) was > 100 µM (inactive) and the GI50 (SNB-19) was > 100 µM (inactive). The GI50 (HCT-116) was > 100 µM (inactive), the GI50 (K562) was 97.1 µM (inactive) and the GI50 (CCRF-CEM) was 32.1 µM (inactive). For the same molecule, the GI50 (M14) was > 100 µM (inactive), the GI50 (SNB-75) was 67.9 µM (inactive) and the GI50 (NCI-H23) was > 100 µM (inactive). The GI50 (DMS-114) was > 100 µM (inactive), the GI50 (SF-539) was > 100 µM (inactive) and the GI50 (OVCAR-4) was > 100 µM (inactive). For the same molecule, the GI50 (DMS-273) was > 100 µM (inactive), the GI50 (UACC-257) was > 100 µM (inactive) and the GI50 (TK-10) was > 100 µM (inactive). For the same molecule, the GI50 (SF-268) was > 100 µM (inactive), the GI50 (U-251) was > 100 µM (inactive) and the GI50 (A498) was > 100 µM (inactive). For the same molecule, the GI50 (SF-295) was > 100 µM (inactive), the GI50 (OVCAR-8) was > 100 µM (inactive) and the GI50 (HL-60) was 89.1 µM (inactive). For the same molecule, the GI50 (A549) was > 100 µM (inactive), the GI50 (HOP-92) was > 100 µM (inactive) and the GI50 (HOP-18) was > 100 µM (inactive). The GI50 (OVCAR-3) was 80.5 µM (inactive), the GI50 (HCC 2998) was > 100 µM (inactive) and the GI50 (RXF 631) was > 100 µM (inactive). For the same molecule, the GI50 (ACHN) was > 100 µM (inactive), the GI50 (KM-20L2) was > 100 µM (inactive) and the GI50 (XF498) was > 100 µM (inactive). The GI50 (HOP-62) was > 100 µM (inactive), the GI50 (CAKI-1) was 85.9 µM (inactive) and the GI50 (HT-29) was > 100 µM (inactive). For the same molecule, the GI50 (SN12C) was > 100 µM (inactive), the GI50 (SK-OV-3) was > 100 µM (inactive) and the GI50 (SR) was 99.3 µM (inactive). For the same molecule, the GI50 (NCI-H522) was 73.5 µM (inactive), the GI50 (786-0) was > 100 µM (inactive) and the GI50 (LXFL 529) was > 100 µM (inactive). The GI50 (HCT-15) was > 100 µM.
